{"source": "patent US7745462B2", "about": "“Quinoline-2-one derivatives for the treatment of airways diseases” (Novartis AG, priority 2003, dated 2010)", "key": {"β1-adrenoreceptor": {"molecular_target": "β1-adrenoreceptor (Homo sapiens, UniProt P08588)", "sequence (P08588 whole entry, species assumed)": "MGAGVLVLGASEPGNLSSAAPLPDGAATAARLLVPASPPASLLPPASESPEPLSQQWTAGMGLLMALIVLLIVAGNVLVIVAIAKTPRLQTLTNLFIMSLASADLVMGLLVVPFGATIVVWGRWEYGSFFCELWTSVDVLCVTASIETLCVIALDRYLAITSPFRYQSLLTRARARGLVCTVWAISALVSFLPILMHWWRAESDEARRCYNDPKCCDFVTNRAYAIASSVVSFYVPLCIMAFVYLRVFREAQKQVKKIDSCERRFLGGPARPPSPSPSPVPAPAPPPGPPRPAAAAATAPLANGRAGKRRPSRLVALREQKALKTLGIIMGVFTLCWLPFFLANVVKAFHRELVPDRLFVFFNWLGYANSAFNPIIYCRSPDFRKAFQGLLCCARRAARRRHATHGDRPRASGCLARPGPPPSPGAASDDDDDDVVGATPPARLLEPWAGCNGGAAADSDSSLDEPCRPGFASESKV", "assay": "β1-adrenoreceptor binding potency, classical filtration binding assay"}, "β2-adrenoreceptor": {"molecular_target": "β2-adrenoreceptor (Homo sapiens, UniProt P07550)", "assay": "β2-adrenoreceptor binding potency, classical filtration binding assay"}, "[1]": {"details": "read-out: Ki (β1) binding potency, classical filtration binding assay, second value of β2/β1 pair"}, "[2]": {"details": "read-out: Ki (β2) binding potency, classical filtration binding assay, first value of β2/β1 pair"}}, "note": "Read-outs that look alike come from different tables or passages of the source."}
{"compound": "O=c1ccc2c(C(O)CNC3CCCC3C3CCCCC3)ccc(O)c2[nH]1", "note": "(mixture of isomers) [Example 33, 5-[R-2-(1S,2S-2-Cyclohexylcyclopentylamino)-1-hydroxyethyl]-8-hydroxy-1H-quinolin-2-one and 5-[R-2-(1R,2R-2-cyclohexylcyclopentylamino)-1-hydroxyethyl]-8-hydroxy-1H-quinolin-2-one]", "values": [{"measurement": "Ki", "setting": "β1-adrenoreceptor", "result": 491, "unit": "nM"}, {"measurement": "Ki", "setting": "β2-adrenoreceptor", "result": 48, "unit": "nM"}]}
{"compound": "COCC1(NC[C@H](O)c2ccc(O)c3[nH]c(=O)ccc23)Cc2ccccc2C1", "note": "[Example 55, 8-Hydroxy-5-[R-1-hydroxy-2-(2-methoxymethylindan-2-ylamino)-ethyl]-1H-quinolin-2-one]", "values": [{"measurement": "Ki", "setting": "β1-adrenoreceptor", "result": 384, "unit": "nM"}, {"measurement": "Ki", "setting": "β2-adrenoreceptor", "result": 128, "unit": "nM"}]}
{"compound": "5-[R-2-((3aS,5R,6aR)-2-Butyloctahydrocyclopenta[c]pyrrol-5-ylamino)-1-hydroxyethyl]-8-hydroxy-1H-quinolin-2-one and 5-[R-2-((3aS,5S,6aR)-2-butyloctahydrocyclopenta[c]pyrrol-5-ylamino)-1-hydroxyethyl]-8-hydroxy-1H-quinolin-2-one [Example 85]", "values": [{"measurement": "Ki", "setting": "β1-adrenoreceptor; [1]", "result": 380, "unit": "nM"}, {"measurement": "Ki", "setting": "β2-adrenoreceptor; [2]", "result": 121, "unit": "nM"}]}
{"compound": "CCC1=C(CC)CC2=C(C1)CC(NC[C@H](O)c1ccc(O)c3[nH]c(=O)ccc13)C2", "note": "[Example 30, 5-[R-2-(5,6-Diethyl-2,3,4,7-tetrahydro-1H-inden-2-ylamino)-1-hydroxyethyl]-8-hydroxy-1H-quinolin-2-one]", "values": [{"measurement": "Ki", "setting": "β1-adrenoreceptor", "result": 132, "unit": "nM"}, {"measurement": "Ki", "setting": "β2-adrenoreceptor", "result": 77, "unit": "nM"}]}
{"compound": "CC1c2ccccc2CC1NCC(O)c1ccc(O)c2[nH]c(=O)ccc12", "note": "(mixture of isomers) [Example 4, 8-Hydroxy-5-[R-1-hydroxy-2-(1R,2S-1-methylindan-2-ylamino)ethyl]-1H-quinolin-2-one and 8-hydroxy-5-[R-1-hydroxy-2-(1S,2R-1-methylindan-2-ylamino)ethyl]-1H-quinolin-2-one]", "values": [{"measurement": "Ki", "setting": "β1-adrenoreceptor", "result": 115, "unit": "nM"}, {"measurement": "Ki", "setting": "β2-adrenoreceptor", "result": 6, "unit": "nM"}]}
{"compound": "CCCCc1ccc2c(c1)CCC2NC[C@H](O)c1ccc(O)c2[nH]c(=O)ccc12", "note": "(mixture of isomers) [Example 3, 5-[R-2-(RS-5-butylindan-1-ylamino)-1-hydroxyethyl]-8-hydroxy-1H-quinolin-2-one]", "values": [{"measurement": "Ki", "setting": "β1-adrenoreceptor", "result": 50, "unit": "nM"}, {"measurement": "Ki", "setting": "β2-adrenoreceptor", "result": 54, "unit": "nM"}]}
{"compound": "O=c1ccc2c([C@@H](O)CN[C@@H]3CCc4ccccc43)ccc(O)c2[nH]1", "note": "[Example 1, 8-Hydroxy-5-[R-1-hydroxy-2-(R-indan-1-ylamino)ethyl]-1H-quinolin-2-one]", "values": [{"measurement": "Ki", "setting": "β1-adrenoreceptor", "result": 186, "unit": "nM"}, {"measurement": "Ki", "setting": "β2-adrenoreceptor", "result": 26, "unit": "nM"}]}
{"compound": "O=c1ccc2c([C@@H](O)CN[C@H]3Cc4ccc(-c5ccco5)cc4C3)ccc(O)c2[nH]1", "note": "[Example 139, 5-[R-2-(S-5-(Furan-2-yl)indan-2-ylamino)-1-hydroxyethyl]-8-hydroxy-1H-quinohnl-2-one]", "values": [{"measurement": "Ki", "setting": "β1-adrenoreceptor", "result": 4, "unit": "nM"}, {"measurement": "Ki", "setting": "β2-adrenoreceptor", "result": 3, "unit": "nM"}]}
{"compound": "5-[R-2-(1R,2R-2-Benzylcyclopentylamino)-1-hydroxyethyl]-8-hydroxy-1H-quinolin-2-one [Example 35]", "values": [{"measurement": "Ki", "setting": "β1-adrenoreceptor; [1]", "result": 6, "unit": "nM"}, {"measurement": "Ki", "setting": "β2-adrenoreceptor; [2]", "result": 0.4, "unit": "nM"}]}
